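All cell lines were grown in 96-well plates and treated with compound for 48 hours. TGI: total growth inhibition.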
Legend:
Assay in all cases: inhibition of tumour cell growth, NCI panel, 48 h
[1] = tested on: TK-10 renal
[2] = tested on: KM12 colon
[3] = tested on: NCI-H460 lung
[4] = tested on: OVCAR-8 ovarian
[5] = tested on: SK-OV-3 ovarian
[6] = tested on: PC-3 prostate
[7] = tested on: OVCAR-3 ovarian
[8] = tested on: NCI-H226 lung
[9] = tested on: U251 CNS
[10] = tested on: HCT-116 colon
[11] = tested on: LOX IMVI melanoma
[12] = tested on: K-562 leukemia
[13] = tested on: NCI-H522 lung
[14] = tested on: DU-145 prostate
[15] = tested on: SK-MEL-28 melanoma
[16] = tested on: SK-MEL-2 melanoma
[17] = tested on: RXF 393 renal
[18] = tested on: ACHN renal
[19] = tested on: HOP-62 NSCLC
[20] = tested on: EKVX NSCLC
[21] = tested on: SN12C renal
[22] = tested on: MDA-N
[23] = tested on: SF-539 CNS
[24] = tested on: HOP-92 NSCLC
[25] = tested on: RPMI-8226 leukemia
[26] = tested on: SW-620 colon
[27] = tested on: HT29 colon
[28] = tested on: NCI-H23 lung
[29] = tested on: HCC-2998 colon
[30] = tested on: A498 renal
[31] = tested on: SNB-19 CNS
[32] = tested on: CCRF-CEM leukemia
[33] = tested on: MDA-MB-435
[34] = tested on: MOLT-4 leukemia
[35] = tested on: HCT-15 colon
[36] = tested on: OVCAR-4 ovarian
[37] = tested on: 786-0 renal
[38] = tested on: M14 melanoma
[39] = tested on: MDA-MB-231 breast
[40] = tested on: UACC-62 melanoma
[41] = tested on: SK-MEL-5 melanoma
[42] = tested on: COLO 205 colon
[43] = tested on: UACC-257 melanoma
[44] = tested on: NCI/ADR-RES ovarian
[45] = tested on: SF-295 CNS
[46] = tested on: HL-60(TB) leukemia
[47] = tested on: IGROV1 ovarian
[48] = tested on: A549 NSCLC
[49] = tested on: T-47D breast
[50] = tested on: MALME-3M melanoma
[51] = tested on: UO-31 renal
[52] = tested on: HS 578T breast
[53] = tested on: SF-268 CNS
[54] = tested on: OVCAR-5 ovarian
[55] = tested on: SR leukemia
[56] = tested on: BT-549 breast
[57] = tested on: MCF7 breast
[58] = tested on: CAKI-1 renal
[59] = tested on: SNB-75 CNS

`CCOP(=O)(O)C(C)(C)NC` was tested, and the TGI [1] was over 100 µM, the TGI [2] was over 100 µM and the TGI [3] was over 100 µM. For the same molecule, the TGI [4] was over 100 µM, the TGI [5] was over 100 µM and the TGI [6] was over 100 µM. For the same molecule, the TGI [7] was over 100 µM, the TGI [8] was over 100 µM and the TGI [9] was over 100 µM. The TGI [10] was over 100 µM, the TGI [11] was over 100 µM and the TGI [12] was over 100 µM. It also gave a TGI [13] of over 100 µM, a TGI [14] of over 100 µM and a TGI [15] of over 100 µM. For the same molecule, the TGI [16] was over 100 µM, the TGI [17] was over 100 µM and the TGI [18] was over 100 µM. The TGI [19] was over 100 µM, the TGI [20] was over 100 µM and the TGI [21] was over 100 µM. The TGI [22] was over 100 µM, the TGI [23] was over 100 µM and the TGI [24] was over 100 µM. The TGI [25] was over 100 µM, the TGI [26] was over 100 µM and the TGI [27] was over 100 µM. For the same molecule, the TGI [28] was over 100 µM, the TGI [29] was over 100 µM and the TGI [30] was over 100 µM. The TGI [31] was over 100 µM, the TGI [32] was over 100 µM and the TGI [33] was over 100 µM. It also gave a TGI [34] of over 100 µM, a TGI [35] of over 100 µM and a TGI [36] of over 100 µM. For the same molecule, the TGI [37] was over 100 µM, the TGI [38] was over 100 µM and the TGI [39] was over 100 µM. It also gave a TGI [40] of over 100 µM, a TGI [41] of over 100 µM and a TGI [42] of over 100 µM. The TGI [43] was over 100 µM, the TGI [44] was over 100 µM and the TGI [45] was over 100 µM. The TGI [46] was over 100 µM, the TGI [47] was over 100 µM and the TGI [48] was over 100 µM. For the same molecule, the TGI [49] was over 100 µM, the TGI [50] was over 100 µM and the TGI [51] was over 100 µM. It also gave a TGI [52] of over 100 µM, a TGI [53] of over 100 µM and a TGI [54] of over 100 µM.

With `CC(C)=C1C(=O)C[C@]2(C)C[C@H]3/C(=C(/C)CCC12)CC[C@@]3(C)O` (some centres not stated) the TGI [1] was over 50 µM, the TGI [2] was over 50 µM and the TGI [4] was over 50 µM. For the same molecule, the TGI [5] was over 50 µM, the TGI [6] was over 50 µM and the TGI [7] was over 50 µM. The TGI [8] was over 50 µM, the TGI [55] was over 50 µM and the TGI [9] was over 50 µM. It also gave a TGI [10] of over 50 µM, a TGI [11] of over 50 µM and a TGI [12] of over 50 µM. The TGI [13] was over 50 µM, the TGI [14] was over 50 µM and the TGI [15] was over 50 µM. For the same molecule, the TGI [16] was over 50 µM, the TGI [56] was over 50 µM and the TGI [17] was over 50 µM. For the same molecule, the TGI [18] was over 50 µM, the TGI [19] was over 50 µM and the TGI [20] was over 50 µM. For the same molecule, the TGI [21] was over 50 µM, the TGI [23] was over 50 µM and the TGI [24] was over 50 µM. For the same molecule, the TGI [25] was over 50 µM, the TGI [26] was over 50 µM and the TGI [27] was over 50 µM. It also gave a TGI [28] of over 50 µM, a TGI [29] of over 50 µM and a TGI [30] of over 50 µM. It also gave a TGI [57] of over 50 µM, a TGI [31] of over 50 µM and a TGI [32] of over 50 µM. It also gave a TGI [33] of over 50 µM, a TGI [34] of over 50 µM and a TGI [35] of over 50 µM. The TGI [36] was over 50 µM, the TGI [37] was over 50 µM and the TGI [38] was over 50 µM. The TGI [39] was over 50 µM, the TGI [40] was over 50 µM and the TGI [41] was over 50 µM. It also gave a TGI [42] of over 50 µM, a TGI [43] of over 50 µM and a TGI [44] of over 50 µM. The TGI [45] was over 50 µM, the TGI [46] was 28.6 µM and the TGI [47] was over 50 µM. The TGI [48] was over 50 µM, the TGI [49] was over 50 µM and the TGI [51] was over 50 µM. For the same molecule, the TGI [58] was over 50 µM, the TGI [52] was over 50 µM and the TGI [53] was over 50 µM. It also gave a TGI [54] of over 50 µM and a TGI [59] of over 50 µM.

Work on `O=[N+]([O-])c1cc2c(c3nonc13)OCCCCO2` yielded a TGI [1] of 93.7 µM, a TGI [2] of 20.7 µM and a TGI [3] of 14 µM. For the same molecule, the TGI [4] was 14.2 µM, the TGI [5] was 65 µM and the TGI [6] was 41.7 µM. The TGI [7] was 7.53 µM, the TGI [8] was 28.2 µM and the TGI [9] was 45.5 µM. It also gave a TGI [10] of 3.46 µM, a TGI [11] of 12.6 µM and a TGI [12] of 17.3 µM. It also gave a TGI [13] of 17.4 µM, a TGI [14] of 28.2 µM and a TGI [15] of 22.5 µM. It also gave a TGI [16] of 29.2 µM, a TGI [17] of 20 µM and a TGI [18] of 19.6 µM. For the same molecule, the TGI [19] was 16.2 µM, the TGI [20] was 38.5 µM and the TGI [21] was 16.1 µM. For the same molecule, the TGI [22] was 16.4 µM, the TGI [23] was 7.27 µM and the TGI [24] was 26.3 µM. For the same molecule, the TGI [25] was 16.3 µM, the TGI [26] was 20.7 µM and the TGI [27] was 21.1 µM. For the same molecule, the TGI [28] was 25.2 µM, the TGI [29] was 35.5 µM and the TGI [30] was 47.6 µM. The TGI [57] was 24.2 µM, the TGI [31] was 34.6 µM and the TGI [32] was 4.98 µM. It also gave a TGI [33] of 17.9 µM, a TGI [34] of 9.79 µM and a TGI [35] of 13.7 µM. The TGI [36] was 27.4 µM, the TGI [37] was 10.7 µM and the TGI [38] was 17.9 µM. It also gave a TGI [39] of 12.1 µM, a TGI [40] of 21.5 µM and a TGI [41] of 21.2 µM. It also gave a TGI [42] of 17.9 µM, a TGI [43] of 28.9 µM and a TGI [44] of 62.6 µM. It also gave a TGI [45] of 31.6 µM, a TGI [46] of 5.15 µM and a TGI [47] of 21.2 µM. It also gave a TGI [48] of 33.5 µM, a TGI [49] of 60.5 µM and a TGI [50] of 11.9 µM. For the same molecule, the TGI [51] was 19.7 µM, the TGI [58] was 34.3 µM and the TGI [52] was 67.7 µM. For the same molecule, the TGI [53] was 27.3 µM, the TGI [54] was 26.2 µM and the TGI [59] was 22.7 µM.

— PubChem BioAssay (NCI)
